Experiment: recombinant barcode read abundance after kanamycin selection (control-corrected) (log10(CPM+1)); higher = more efficient recombination; sequences stand for … in AGTGCAGAGAAAATCGGCCAGTTTTCTCTGCCTGCAGTCCGCATGCCGT…AGATTTATGCAGCGGACTGCCTTTCTCCCAAAGTGATAAACCGGACAGTATCATGGACCGGTTTTCCCGGTAATCCGTATTTGCAAGGTTGGTTTCACT; site = the 11-nt target
Outline: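 A promoter, a target, a barcode and the first 104 bridge RNA bases under J23119 made up each oligo. Oligos were Gibson-cloned into a vector bearing the other 73 bp and a T7-inducible recombinase, then co-electroporated into E. coli with a donor plasmid and plated in duplicate on chloramphenicol/ampicillin LB agar (control) or chloramphenicol/ampicillin/kanamycin with 0.1 mM IPTG. Recombination efficiency is the averaged, control-corrected counts per million of recombinant-junction barcodes. Reported values are log10(CPM+1).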
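Also: IS621 recombinase and bridge RNA in Escherichia coli cells.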

Sequence	recombinant barcode read abundance (log10)
GACGGATCTTGGGTTCTAACCTGTTGCAT (site GACGGATCTAG)	0.233
GACGGATCTTGGGTTCTAACCTGTTGCAT (site GACGGATCTAT)	1.09
GACGGATCTTGGGTTCTAACCTGTTGCGT (site GACGGATCTAA)	0.0403
GACGGATCTTGGGTTCTAACCTGTTGCGT (site GACGGATCTAC)	0.705
GACGGATCTTGGGTTCTAACCTGTTGCGT (site GACGGATCTAG)	0.569
GACGGATCTTGGGTTCTAACCTGTTGCGT (site GACGGATCTAT)	1.35
GACGGCACTTGGGTTCTAACCTGTTGCCT (site CGGCTACCTCC)	0.0844
GACGGCACTTGGGTTCTAACCTGTTGCCT (site GACGGCACTAG)	0.567
GACGTGCCTTGGGTTCTAACCTGTTGCCG (site CTTAGTACTAT)	0.11
GACGTGCCTTGGGTTCTAACCTGTTGCCG (site GACGTGCCTCG)	1.77
GACTAAGCTTGGGTTCTAACCTGTTGCGG (site CTGGGGTCTAA)	0.0398
GACTAAGCTTGGGTTCTAACCTGTTGCGG (site GACTAAGCTCC)	2.39
GACTCTCCTTGGGTTCTAACCTGTTGCAG (site GACTCTCCTCA)	0.147
GACTCTCCTTGGGTTCTAACCTGTTGCAG (site GACTCTCCTCT)	0.0267
GACTGAGCTTGGGTTCTAACCTGTTGCGG (site AGACAGTCTTG)	0.046
GACTGAGCTTGGGTTCTAACCTGTTGCGG (site GACTGAGCTCC)	2.26
GACTGGGCTTGGGTTCTAACCTGTTGCTG (site GACTGGCCTAA)	0.239
GACTGGGCTTGGGTTCTAACCTGTTGCTG (site GACTGGGCTCA)	1.58

Sequence	recombinant barcode read abundance (log10)
GACTGTCCTTGGGTTCTAACCTGTTGCGA (site GACCGTCCTTG)	0.372
GACTGTCCTTGGGTTCTAACCTGTTGCGA (site GACTGTCCTTC)	1.8
GACTGTTCTTGGGTTCTAACCTGTTGCCT (site GACTGTTCTAG)	0.13
GACTGTTCTTGGGTTCTAACCTGTTGCCT (site GCCTGTTCTAG)	0.0949
GACTGTTCTTGGGTTCTAACCTGTTGCCT (site GGCTGTTCTAG)	0.202
GACTGTTCTTGGGTTCTAACCTGTTGCCT (site GTCTGTTCTAG)	0.0588
GACTTGGCTTGGGTTCTAACCTGTTGCCT (site GACTTGACTAG)	0.0256
GACTTGGCTTGGGTTCTAACCTGTTGCCT (site GACTTGCCTAG)	0.146
GACTTGGCTTGGGTTCTAACCTGTTGCCT (site GACTTGGCTAG)	0.146
GACTTGGCTTGGGTTCTAACCTGTTGCCT (site GACTTGTCTAG)	0.124
GAGAAATCTTGGGTTCTAACCTGTTGCCT (site GAGAAATCTAG)	0.59
GAGAAATCTTGGGTTCTAACCTGTTGCCT (site GAGACATCTAG)	0.249
GAGAAATCTTGGGTTCTAACCTGTTGCCT (site GAGAGATCTAG)	0.0526
GAGAAATCTTGGGTTCTAACCTGTTGCCT (site GAGATATCTAG)	0.0612
GAGAAGTCTTGGGTTCTAACCTGTTGCCT (site GAGAAGTCTAG)	1.93
GAGAAGTCTTGGGTTCTAACCTGTTGCCT (site GAGCAGTCTAG)	0.133
GAGAAGTCTTGGGTTCTAACCTGTTGCCT (site GAGGAGTCTAG)	0.115
GAGAAGTCTTGGGTTCTAACCTGTTGCCT (site GAGTAGTCTAG)	0.404

Reference: the supplement of paper PMC11208160
